Where two headings read alike, the source gives them in different places.
Tests used:
zebrafish PXR = target: T1, zebrafish PXR (Danio rerio, UniProt A5WYG8)
T1 sequence (A5WYG8 144-430): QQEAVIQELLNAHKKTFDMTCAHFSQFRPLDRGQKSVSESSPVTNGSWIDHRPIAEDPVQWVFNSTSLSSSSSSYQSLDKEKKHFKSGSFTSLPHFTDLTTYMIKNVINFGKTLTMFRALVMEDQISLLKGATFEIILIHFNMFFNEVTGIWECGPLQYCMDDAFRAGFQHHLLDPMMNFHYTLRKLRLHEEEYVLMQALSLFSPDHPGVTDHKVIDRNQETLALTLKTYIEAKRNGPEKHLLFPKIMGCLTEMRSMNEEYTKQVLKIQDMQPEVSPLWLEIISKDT

human PXR [1] = target: T2, human PXR (Homo sapiens, UniProt O75469)
T2 sequence (O75469 1-434): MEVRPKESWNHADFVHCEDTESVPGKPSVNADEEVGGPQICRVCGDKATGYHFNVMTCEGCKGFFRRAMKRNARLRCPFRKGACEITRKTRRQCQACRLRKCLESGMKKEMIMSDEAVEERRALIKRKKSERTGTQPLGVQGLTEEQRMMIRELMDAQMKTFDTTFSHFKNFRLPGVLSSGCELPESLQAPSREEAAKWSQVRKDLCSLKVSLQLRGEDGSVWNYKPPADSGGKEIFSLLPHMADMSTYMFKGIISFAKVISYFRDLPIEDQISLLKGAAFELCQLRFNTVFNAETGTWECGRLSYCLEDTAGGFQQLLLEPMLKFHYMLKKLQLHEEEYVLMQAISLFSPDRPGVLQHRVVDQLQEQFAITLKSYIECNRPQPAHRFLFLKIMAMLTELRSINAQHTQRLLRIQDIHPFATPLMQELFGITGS

human PXR [2] = target: T2, human PXR; assay: PXR activation luciferase reporter assay, human PXR in HepG2-NTCP cells; conditions: hPXR Activity, -log(EC50), EC50 in molar units, activation of human PXR
[3] = -log(EC50), EC50 in molar units, activation of zebrafish PXR
[4] = relative to 20 μM 5α-androstan-3α-ol, assigned an efficacy of 1.0

Compound | zfPXR Activity (zebrafish PXR; [3]) | hPXR Activity (human PXR [1]) | Toxicity (HepG2 cells) | further results
4-Pregnen-20β-ol-3,20-dione-17α-sulfate [PR22] | None | 5.73 | None | 
C[C@]12CC[C@H](O)CC1=CC[C@@H]1[C@@H]2CC[C@]2(C)C(=O)CC[C@@H]12 [AN9, 5-Androsten-3β-ol-17-one] |  | 4.49 | None | EC50 (zebrafish PXR): 11 to 50 µM; zfPXR Activity (zebrafish PXR): 4.89; zfPXR Efficacy (zebrafish PXR): 0.35; EC50 (human PXR [1]): 11 to 50 µM; hPXR Efficacy (human PXR [1]): 0.52
C[C@H](CC(=O)O)[C@H]1CC[C@H]2[C@@H]3CC[C@@H]4C[C@H](O)CC[C@]4(C)[C@H]3C[C@H](O)[C@]12C [BI26, 23-Nordeoxycholic acid] | None | 4.79 | None | 
C[C@H](CC(=O)O)[C@H]1CC[C@H]2[C@@H]3[C@H](O)C[C@@H]4C[C@H](O)CC[C@]4(C)[C@H]3C[C@H](O)[C@]12C [BI27, 23-Norcholic acid] | None | 4.02 | None | 
C[C@H](CCCO)[C@H]1CC[C@H]2[C@@H]3[C@H](O)C[C@H]4C[C@H](O)CC[C@]4(C)[C@H]3C[C@H](O)[C@]12C [BI29, 5α-Cholan-3α,7α,12α,-24-tetrol] | None | None | 50 µM | 
C[C@H](CCCOS(=O)(=O)O)[C@H]1CC[C@H]2[C@@H]3[C@H](O)C[C@H]4CC(=O)CC[C@]4(C)[C@H]3C[C@H](O)[C@]12C [BI32, 5α-Cholan-7α,12α-diol-3-one-24-sulfate] | None | None | None | 
C[C@H](CCC(O)C(CO)CO)[C@H]1CC[C@H]2[C@@H]3[C@H](O)C[C@@H]4C[C@H](O)CC[C@]4(C)[C@H]3C[C@H](O)[C@]12C (stereo partly drawn) [BI35, 5β-Cholestan-3α,7α,12α,24,26-hexol] | None | None | 100 µM | 
C[C@H](CCCC(CO)CO)[C@H]1CC[C@H]2[C@@H]3[C@H](O)C[C@@H]4C[C@H](O)CC[C@]4(C)[C@H]3C[C@H](O)[C@]12C [BI37, 5β-Cholestan-3α,7α,12α,26,27-pentol] | None | None |  | Toxicity (HepG2 cells; human, 24 hr): 50 µM
CC(CO)CCC[C@@H](C)[C@H]1[C@H](O)C[C@H]2[C@@H]3[C@H](O)C[C@H]4C[C@@H](O)CC[C@]4(C)[C@H]3CC[C@]12C (stereo partly drawn) [BI40, 5α-Cholestan-3β,7α,16α,27-tetrol] | None | None |  | Toxicity (HepG2 cells; human, 24 hr): 100 µM
C[C@]12CC[C@@H]3c4ccc(O)cc4CC[C@H]3[C@@H]1C[C@@H](O)[C@@H]2O [ES3, 1,3,5(10)-Estratrien-3,16α,17β-triol] | None | None |  | Toxicity (HepG2 cells; human, 24 hr): 200 µM
C[C@]12CC[C@@H]3c4ccc(O)cc4CC[C@H]3[C@@H]1C[C@@H](O)C2=O [ES4, 1,3,5(10)-Estratrien-3,16α-diol-17-one] | 5.70 | 5.60 | None | zfPXR Efficacy (zebrafish PXR): 0.17
COc1c(O)ccc2c1CC[C@@H]1[C@@H]2CC[C@]2(C)C(=O)CC[C@@H]12 [ES5, 1,3,5(10)-Estratrien-3-ol-4-methoxy-17-one] | 5.62 | 5.40 | None | zfPXR Efficacy (zebrafish PXR): 0.19
C[C@]12CC[C@@H]3c4ccc(OS(=O)(=O)O)cc4CC[C@H]3[C@@H]1CCC2=O [ES8, 1,3,5(10)-Estratrien-17-one-3-sulfate] | None | 5.47 | None | 
C#C[C@]1(O)CC[C@H]2[C@@H]3CCc4cc(O)ccc4[C@H]3CC[C@@]21C [ES11, 1,3,5(10)-Estratrien-17α-ethinyl-3,17β-diol] | None |  |  | hPXR Efficacy (human PXR [1]; human): 0.68; Toxicity (HepG2 cells; human, 24 hr): 200 µM
Nc1cccc(C(=O)O)c1 [MI2, 3-Aminobenzoic acid] | None | None | None | 
CCOP(=S)(OCC)Oc1nc(Cl)c(Cl)cc1Cl [MI10, Chlorpyrifos] |  |  | None | EC50 (human PXR [2]): 25.7 µM; hPXR Efficacy (human PXR [1]; human): 2.05
COc1c(C)c2c(c(O)c1C/C=C(\C)CCC(=O)O)C(=O)OC2 [MI21, Mycophenolic acid] | None | None | None | 

Compound | zfPXR Activity (zebrafish PXR; [3]) | hPXR Activity (human PXR [1]) | Toxicity (HepG2 cells) | further results
CCC1(c2ccccc2)C(=O)NC(=O)NC1=O [MI25, Phenobarbital] |  |  | None | hPXR Efficacy (human PXR [1]; human): 1.19
O=C1NC(=O)C(c2ccccc2)(c2ccccc2)N1 [MI26, Phenytoin] |  |  |  | zfPXR Activity (zebrafish PXR): None; hPXR Efficacy (human PXR [1]; human): 0.52; Toxicity (HepG2 cells; human, 24 hr): 200 µM
CC(C)CCC[C@@H](C)[C@H]1CC[C@H]2C3=CC=C4C[C@@H](O)CC[C@]4(C)[C@H]3CC[C@]12C [MI28, Provitamin D3] | None | None | 10 µM | 
CC(C)[C@@H](C)/C=C/[C@@H](C)[C@H]1CC[C@H]2C3=CC=C4C[C@@H](O)CC[C@]4(C)[C@H]3CC[C@]12C [MI29, Provitamin D2] | None | None | 20 µM | 
CC1=C(/C=C/C(C)=C/C=C/C(C)=C/CO)C(C)(C)CCC1 [MI31, Retinol] |  |  |  | zfPXR Activity (zebrafish PXR): None; hPXR Efficacy (human PXR [1]; human): 0.20; Toxicity (HepG2 cells; human, 24 hr): 50 µM
C=C1/C(=C\C=C2/CCC[C@]3(C)[C@@H]([C@H](C)/C=C/[C@H](C)C(C)C)CC[C@@H]23)C[C@@H](O)C[C@@H]1O [MI42, 1α-Hydroxyvitamin D2] | None | None |  | Toxicity (HepG2 cells; human, 24 hr): 50 µM
CC1=CC(=O)c2ccccc2C1=O [MI46, Vitamin K3] |  |  |  | zfPXR Activity (zebrafish PXR): None; hPXR Efficacy (human PXR [1]; human): ~0.15; Toxicity (HepG2 cells; human, 24 hr): 100 µM
CC(=O)[C@@]1(O)CC[C@H]2[C@@H]3CC=C4C[C@@H](O)CC[C@]4(C)[C@H]3CC[C@@]21C [PR11, 5-Pregnen-3β,17-diol-20-one] | None | 4.47 | None | EC50 (human PXR [1]): 11 to 50 µM
CC(=O)[C@H]1CC[C@H]2[C@@H]3CC[C@H]4C[C@H](O)CC[C@]4(C)[C@H]3CC[C@]12C [PR14, 5α-Pregnan-3α-ol-20-one] |  |  | None | EC50 (human PXR [2]): 4.17 µM; hPXR Efficacy (human PXR [1]; human): 0.46
C[C@]12CC[C@@H](O)C[C@H]1CC[C@@H]1[C@@H]2[C@@H](O)C[C@@]2(C)[C@H]1CC[C@]2(O)[C@@H](O)CO [PR17, 5β-Pregnan-3α,11β,17,20α-21-pentol] | 3.95 | 4.33 | 200 µM | zfPXR Efficacy (zebrafish PXR; [4]): 0.98
C[C@]12CC[C@@H](O)C[C@H]1CC[C@@H]1[C@@H]2C(=O)C[C@@]2(C)[C@H]1CC[C@]2(O)[C@@H](O)CO [PR18, 5β-Pregnan-3α,17,20α-21-tetrol-11-one] | 4.34 | 4.35 | 200 µM | zfPXR Efficacy (zebrafish PXR; [4]): 0.25
C[C@]12CC[C@@H](O)C[C@H]1CC[C@@H]1[C@@H]2C(=O)C[C@@]2(C)[C@H]1CC[C@]2(O)C(=O)CO [PR19, 5β-Pregnan-3α,17,21-triol-11,20-dione] | 4.43 | 4.28 | None | zfPXR Efficacy (zebrafish PXR; [4]): 0.33
C[C@@H](O)[C@@]1(O)CC[C@H]2[C@@H]3CCC4=CC(=O)CC[C@]4(C)[C@H]3CC[C@@]21C [PR21, 4-Pregnen-17α,20β-diol-3,20-dione] | None | None | 200 µM | 
C[C@@H](O)[C@H]1CC[C@H]2[C@@H]3CC[C@@H]4C[C@H](O)CC[C@]4(C)[C@H]3CC[C@]12C [PR23, 5β-Pregnan-3α,20β-diol] | 5.95 | 5.42 | None | zfPXR Efficacy (zebrafish PXR; [4]): 0.25
C[C@]12CC[C@@H](O)C[C@H]1CC[C@@H]1[C@@H]2[C@@H](O)C[C@@]2(C)[C@H]1CC[C@]2(O)C(=O)CO [PR24, 5β-Pregnan-3α,11β,17,21-tetrol-20-one] | 3.94 | 4.33 | None | zfPXR Efficacy (zebrafish PXR; [4]): 0.11
CC(=O)[C@H]1CC[C@H]2[C@@H]3CC=C4C[C@@H](OS(=O)(=O)O)CC[C@]4(C)[C@H]3CC[C@]12C [PR26, 5-Pregnen-20-one-3β-sulfate] | 4.95 | None | None | zfPXR Efficacy (zebrafish PXR; [4]): 0.23

Reference: PMC2358886, “Evolution of pharmacologic specificity in the pregnane X receptor” (BMC Evolutionary Biology, 2008)
